Assay results from ChEMBL document CHEMBL3098110, “Modulating the interaction between CDK2 and cyclin A with a quinoline-based inhibitor” (Bioorg Med Chem Lett, 2014).

Legend:
[1] = target: T1, Cyclin-dependent kinase 2 (Homo sapiens, UniProt P24941)
Description: Inhibition of CDK2 (unknown origin)-cyclin A interaction preincubated for 30 mins at room temperature followed by incubation at 40 degC for 30 mins by SDS-PAGE analysis

[2] = target: T1, Cyclin-dependent kinase 2; remark: listed apart in the source
Description: Displacement of B-Alexa-Fluor647 from CDK2 (unknown origin) by fluorescence polarization assay

[3] = target: T1, Cyclin-dependent kinase 2; remark: listed apart in the source
[4] = target: T1, Cyclin-dependent kinase 2; remark: listed apart in the source
Description: Binding affinity to human CDK2 by isothermal titration calorimetric analysis

| Compound | IC50 [1] | Ki [2] | Kd [3] | Kd [4] |
| --- | --- | --- | --- | --- |
| COC(=O)[C@H](Cc1ccc(O)cc1)NC(=O)c1cc(C(=O)NS(C)(=O)=O)c2cc(-c3cccs3)ccc2n1 | > 10000 nM | > 40000 nM | > 40000 nM |  |
| COC(=O)[C@H](Cc1ccc(F)cc1)NC(=O)c1cc(C(=O)O)c2cc(-c3cccc(C(F)(F)F)c3)ccc2n1 | > 10000 nM | 2500 nM | 4000 nM |  |
| COC(=O)[C@H](Cc1ccc(OC)cc1)NC(=O)c1cc(C(=O)O)c2cc(-c3cccc(C(F)(F)F)c3)ccc2n1 | > 10000 nM | > 40000 nM | > 40000 nM |  |
| COC(=O)[C@H](Cc1cccc(O)c1)NC(=O)c1cc(C(=O)O)c2cc(-c3cccc(C(F)(F)F)c3)ccc2n1 | > 10000 nM | > 40000 nM | > 40000 nM |  |
| O=C(NCCc1ccc(O)cc1)c1cc(C(=O)O)c2cc(-c3cccs3)ccc2n1 | > 10000 nM | > 40000 nM | > 40000 nM |  |
| C[C@H](Cc1ccc(O)cc1)NC(=O)c1cc(C(=O)O)c2cc(-c3cccc(C(F)(F)F)c3)ccc2n1 | > 10000 nM | 2500 nM | 4000 nM |  |
| COC[C@H](Cc1ccc(O)cc1)NC(=O)c1cc(C(=O)O)c2cc(/C=C/c3ccc(Cl)cc3)ccc2n1 | > 10000 nM | < 100 nM | 25 nM |  |
| COC(=O)[C@H](Cc1ccc(O)cc1)NC(=O)c1cc(C(=O)O)c2cc(-c3ccccc3)ccc2n1 | > 10000 nM | 10000 nM | 12000 nM |  |
| COC(=O)[C@H](Cc1ccc(O)cc1)NC(=O)c1cc(C(=O)O)c2cc(N3CCOCC3)ccc2n1 | > 10000 nM | 2800 nM | 2400 nM |  |
| COC(=O)[C@H](Cc1ccc(O)cc1)NC(=O)c1cc(C(=O)O)c2cc(-c3cccc(C(F)(F)F)c3)ccc2n1 | > 10000 nM | < 100 nM | 40 nM | 50 nM |
| COC(=O)[C@H](Cc1ccc(O)cc1)NC(=O)c1cc(C(=O)O)c2cc(CCc3ccc(Cl)cc3)ccc2n1 | > 10000 nM | < 100 nM | 48 nM | 55 nM |
| CCCCCCc1ccc2nc(C(=O)N[C@@H](Cc3ccc(O)cc3)C(=O)OC)cc(C(=O)O)c2c1 | > 10000 nM | < 100 nM | 76 nM |  |
| COC(=O)[C@H](Cc1ccc(O)cc1)NC(=O)c1cc(CO)c2cc(-c3cccc(C(F)(F)F)c3)ccc2n1 | > 10000 nM | > 40000 nM | > 40000 nM |  |
| COC(=O)[C@H](Cc1ccc(O)cc1)NC(=O)c1cc(C(N)=O)c2cc(-c3cccs3)ccc2n1 | > 10000 nM | > 40000 nM | > 40000 nM |  |

Results, then the molecule that gave them:

| IC50 [1] | Ki [2] | Kd [3] | Kd [4] | Compound |
| --- | --- | --- | --- | --- |
| > 10000 nM | 12000 nM | > 10000 nM |  | O=C(N[C@@H](Cc1ccc(O)cc1)C(=O)O)c1cc(C(=O)O)c2cc(-c3cccc(C(F)(F)F)c3)ccc2n1 |
| > 10000 nM | 300 nM | 400 nM |  | CCC[C@H](Cc1ccc(O)cc1)NC(=O)c1cc(C(=O)O)c2cc(-c3cccc(C(F)(F)F)c3)ccc2n1 |
| > 10000 nM | 100 nM | 300 nM |  | CNC(=O)[C@H](Cc1ccc(O)cc1)NC(=O)c1cc(C(=O)O)c2cc(/C=C/c3ccc(Cl)cc3)ccc2n1 |
| > 10000 nM | 160 nM | 350 nM |  | CN(C)C(=O)[C@H](Cc1ccc(O)cc1)NC(=O)c1cc(C(=O)O)c2cc(/C=C/c3ccc(Cl)cc3)ccc2n1 |
| > 10000 nM | 100 nM | 240 nM |  | COC[C@H](Cc1ccc(O)cc1)NC(=O)c1cc(C(=O)O)c2cc(-c3cccc(C(F)(F)F)c3)ccc2n1 |
| > 10000 nM | 900 nM | 1100 nM | 1000 nM | COC(=O)[C@H](Cc1ccc(O)cc1)NC(=O)c1cc(C(=O)O)c2cc(-c3cccs3)ccc2n1 |
| > 10000 nM | 900 nM | 900 nM |  | COC(=O)[C@H](Cc1ccc(O)cc1)NC(=O)c1cc(C(=O)O)c2cc(-c3ccc(Cl)cc3)ccc2n1 |
| > 10000 nM | 200 nM | 320 nM |  | COC(=O)[C@H](Cc1ccc(O)cc1)NC(=O)c1cc(C(=O)O)c2cc(-c3cc(Cl)cc(Cl)c3)ccc2n1 |
| > 10000 nM | < 100 nM | 5 nM |  | COC(=O)[C@H](Cc1ccc(O)cc1)NC(=O)c1cc(C(=O)O)c2cc(/C=C/c3ccc(Cl)cc3)ccc2n1 |
